# According to patent US7820690B2, “Method of treating or inhibiting a non-digestive tract derived abdominal disorder associated with pain using a 5-HT, receptor antagonist” (Solvay Pharmaceuticals GmbH, priority 2004, dated 2010):
# Read-outs that look alike come from different tables or passages of the source.
# Tested on: rats with cyclophosphamide-induced cystitis
# Assay: cystometry in rats with cyclophosphamide-induced cystitis
# Format: in vivo, male Wistar rats
# Conditions: for inhibition at 0.01 mg/kg / inhibition at 0.1 mg/kg: Rattus norvegicus, iv; for inhibition at 0.01 mg/kg: group 4, cilansetron 0.01 mg/kg i.v.; for inhibition at 0.1 mg/kg: group 5, cilansetron 0.1 mg/kg i.v.
# Method: In this test model, the effect of 5-HT3 receptor antagonists on rats with cyclophosphamide-induced cystitis was investigated.
# Inflammation of the bladder responsible for bladder overactivity was induced by an intraperitoneal (i.p.) cyclophosphamide injection (150 mg/kg, i.p.) 48 hours before testing (Maggi et al., J Auton Nerv Syst 38 (1992) 201) using male Wistar rats weighing 300-350 g. The rats were anesthetized with urethane delivered subcutaneously in saline (1.2 g/kg), and their temperature was maintained at 37° C. Following a midline abdominal incision, a catheter was inserted through the bladder dome and sealed with a tie. The catheter was connected via a T-tube to a pressure transducer and a syringe pump, to allow filling of the bladder with warm (37° C.) saline at 50 μl/min simultaneously with recording of intravesical pressure. This catheter was later used for cystometry.
# For each voiding and non-voiding contraction, the threshold pressure (ThP, corresponding to the bladder pressure at the onset of the voiding contraction (mm Hg)), the maximal voiding pressure (MP, defined by the maximal bladder pressure reached during voiding contraction (mm Hg)) the basal pressure (BaP, defined by the lowest bladder pressure reached after the voiding contraction (mm Hg)) and the area under the curve of the bladder pressure (AUP) during voiding (mm Hg×s) was calculated for each rat and averaged for each condition. In addition, the frequency of contractions was determined.
# Test groups consisting of 10 rats each were used. Drug treatments were carried out as described in the following Table 1.
# In groups 2 through 5, cystitis was induced by administration of cyclophosphamide 150 mg/kg intraperitoneally (i.p.) 48 hours before the experiment. Group 1 served as a control group. Drugs or vehicle to be tested were injected 10 minutes before the beginning of cystometry. Besides […] doses of cilansetron (groups 4-5), HOE140 (D-Arginyl-[Hyp3, Thi5, D-Tic7, Oic8]-bradykinin), a bradykinin 2 receptor antagonist, was used as a reference standard known to be active in this model. During the cystometry the pressure changes due to transvesical perfusion of warm saline at 50 μl/min were recorded over 60 minutes. Parameters (as outlined above) were analyzed for each bladder filling.
# [1] = HOE140 130 μg/kg i.v., effect of treatment in cystitis rats
# [2] = group 3, cyclophosphamide cystitis + HOE140 130 μg/kg i.v.
# [3] = read-out: % inhibition of cystitis effects, basal pressure
# [4] = read-out: % inhibition of cystitis effects, frequency
# [5] = read-out: % inhibition of cystitis effects, threshold pressure
# [6] = group 4, cyclophosphamide cystitis + cilansetron 0.01 mg/kg i.v.
# [7] = group 5, cyclophosphamide cystitis + cilansetron 0.1 mg/kg i.v.
molecule,measurement,setting,value
"D-Arginyl-[Hyp3, Thi5, D-Tic7, Oic8]-bradykinin [HOE140]",area under the curve of the bladder contractions,[1],not affected
same,first micturition volume,[1],not affected
same,micturition pressure,[1],not affected
same,symptoms of bladder overactivity associated with cyclophosphamide pretreatment,"acute treatment, HOE140 130 μg/kg",reduced the symptoms of bladder overactivity
same,"% inhibition of cystitis effects, basal pressure","group 3, HOE140 130 μg/kg i.v.",50%
same,"% inhibition of cystitis effects, frequency","group 3, HOE140 130 μg/kg i.v.",25%
same,"% inhibition of cystitis effects, threshold pressure","group 3, HOE140 130 μg/kg i.v.",60%
same,frequency of bladder contractions,[2],30 h⁻¹
same,threshold pressure,[2],17 mmHg
same,basal pressure,"group 3, cyclophosphamide cystitis + HOE140 130 μg/kg i.v., 10 minutes before cystometry",16 mmHg
"Cc1nccn1C[C@H]1CCc2c(c3cccc4c3n2CCC4)C1=O [cilansetron, (R)-(−)-4,5,6,8,9,10-hexahydro-10-[(2-methyl-1H-imidazol-1-yl)methyl]-11H-pyrido-[3,2,1-jk]-carbazol-11-one]",inhibition at 0.01 mg/kg,[3],50%
same,inhibition at 0.01 mg/kg,[4],45%
same,inhibition at 0.01 mg/kg,[5],60%
same,inhibition at 0.1 mg/kg,[3],83%
same,inhibition at 0.1 mg/kg,[4],35%
same,inhibition at 0.1 mg/kg,[5],100%
same,effectiveness compared with reference compound HOE 140,cilansetron 0.01 mg/kg i.v.,"similarly effective to, or even more effective than"
same,symptoms of bladder overactivity associated with cyclophosphamide pretreatment,"cilansetron 0.01 and 0.1 mg/kg, compared with HOE140",reduced these symptoms to an equivalent or slightly greater extent
same,beneficial effect compared with HOE140,"cystometry in rats with cyclophosphamide-induced cystitis, overall conclusion",superior
same,basal pressure,[6],16 mmHg
same,frequency of bladder contractions,[6],26 h⁻¹
same,threshold pressure,[6],17 mmHg
same,basal pressure,[7],14 mmHg
same,frequency of bladder contractions,[7],28 h⁻¹
same,threshold pressure,[7],15 mmHg
